According to patent US20170106101A1, “METHODS INVOLVING MACROPHAGE TUMOR CELL FUSION HYBRIDS” (OREGON HEALTH & SCIENCE UNIVERSITY, priority 2015, published 2017):

Tests used:
Type in all cases: cell-based, mouse
MC38 cells = test: Growth responsiveness to cytokines and soluble factors (MTS, confluence, viability); details: increasing concentrations of cytokine
Protocol: (§1) In vitro-derived hybrid proliferation. For phenotypic profiling growth responsiveness to cytokines and soluble factors, 95 different cytokines or soluble signaling molecules were distributed at high, medium and low concentrations in 384 well plates, in 25 μl of RPMI (Life Technologies, NY) supplemented with 1% FBS; and 25 μl of a 1.2×10^4 cells/ml suspension of hybrid or MC-38 cells in DMEM+4% FBS was added to each well. 99 wells of each plate were left cytokine-free and no cells were added to two of these wells, which served to provide measurements of background signal. Plates were cultured in a humidified incubator for 72 hours, after which 5 ul of MTS reagent was added to each well. Two hours later, absorbance at 490 nm was read with a 384-well plate reader. For each plate, absorbance values for each cytokine-treated well were normalized to the mean absorbance of the cytokine-free wells on that plate, and expressed in terms of standard deviations from the cytokine-free mean. Three independent hybrid isolates and three MC38 replicates were analyzed. […] In these experiments, 2.5×10^4 hybrid or MC38 cells were plated in the presence of three different concentrations for each soluble factor, or in media alone (DMEM+2.5% FBS), in triplicate for each condition. Plates were imaged every two hours for 90 hours, and then cell viability was assessed.

[1] = tested on: MC38-derived hybrid cells; test: as above; details: increasing concentrations of cytokine; MC38-derived hybrids
Protocol: as §1

[2] = tested on: MC38-derived fusion hybrids; test: Transwell chemotaxis assay towards ligand; details: ligand 25 ng/ml
Protocol: (§2) Chemotaxis assay. Chemotaxis assays were performed using IncuCyte™ Chemotaxis Cell Migration Assay (Essen) with at least three technical replicates of triplicate samples. Briefly, 1000 cancer cells were plated in the top wells in DMEM+0.2% FBS after incubation in serum-free media for 20 h. Csf1 or Sdf1 ligand (25 ng/mL) was added to the bottom well and cells were incubated at 37° C. for at least 36 hours with live-imaging. The neutralizing antibodies to the Csf1R (eBioscience), Cxcr4 (Biolegend) and isotype control antibody were added to the top and bottom well (2.5 ng/μL). Migration was quantified by measuring phase contrast area of the top and bottom wells for each timepoint using IncuCyte ZOOM® software. Triplicates of each condition were performed, and the means and standard deviations were calculated. p<0.02 for hybrids treated with Csf1 or Sdf1 relative to hybrids without Csf1 or Sdf1 by unpaired t-test. Two independent hybrid isolates were analyzed. Technical octupulicates (MC38) or sextuplicates (B16F10) with biologic quadruplicates or triplicates were analyzed. For inhibitor studies technical duplicates with biologic triplicates were analyzed.

[3] = tested on: unfused MC38 cancer cells; test: Transwell chemotaxis assay towards ligand; details: ligand 25 ng/ml
Protocol: as §2

[4] = tested on: B16F10 cancer cell hybrids; test: Transwell chemotaxis assay towards ligand; details: ligand 25 ng/ml
Protocol: as §2

| Molecule | effect on MC38 proliferation / growth (MC38 cells) | effect on hybrid proliferation / growth [1] | migration of fusion hybrids towards ligand [2] | migration of unfused MC38 cells towards ligand [3] | migration of B16F10 hybrids towards ligand [4] |
| --- | --- | --- | --- | --- | --- |
| Tnf-α | profound inhibitory effect | resistant | – | – | – |
| Sdf1: strongly chemotactic lymphocyte cytokine, ligand of Cxcr4 | – | – | migrated towards | incapable of responding | – |
| Hgf: Hepatic growth factor, cytokine tested for growth effect on MC38 and hybrid cells (protein, UniProt Q08048 33-495; Q08048 496-728, looked up) Hepatocyte growth factor …: QKKRRNTLHEFKKSAKTTLTKEDPLLKIKTKKVNSADECANRCIRNRGFTFTCKAFVFDKSRKRCYWYPFNSMSSGVKKGFGHEFDLYENKDYIRNCIIGKGGSYKGTVSITKSGIKCQPWNSMIPHEHSFLPSSYRGKDLQENYCRNPRGEEGGPWCFTSNPEVRYEVCDIPQCSEVECMTCNGESYRGPMDHTESGKTCQRWDQQTPHRHKFLPERYPDKGFDDNYCRNPDGKPRPWCYTLDPDTPWEYCAIKTCAHSAVNETDVPMETTECIQGQGEGYRGTSNTIWNGIPCQRWDSQYPHKHDITPENFKCKDLRENYCRNPDGAESPWCFTTDPNIRVGYCSQIPKCDVSSGQDCYRGNGKNYMGNLSKTRSGLTCSMWDKNMEDLHRHIFWEPDASKLNKNYCRNPDDDAHGPWCYTGNPLIPWDYCPISRCEGDTTPTIVNLDHPVISCAKTKQLR Hepatocyte growth factor beta …: VVNGIPTQTTVGWMVSLKYRNKHICGGSLIKESWVLTARQCFPARNKDLKDYEAWLGIHDVHERGEEKRKQILNISQLVYGPEGSDLVLLKLARPAILDNFVSTIDLPSYGCTIPEKTTCSIYGWGYTGLINADGLLRVAHLYIMGNEKCSQHHQGKVTLNESELCAGAEKIGSGPCEGDYGGPLICEQHKMRMVLGVIVPGRGCAIPNRPGIFVRVAYYAKWIHKVILTYKL | moderate, dose-dependent growth-suppressing effect | – | – | – | – |
| Csf1: ligand of colony stimulating factor 1 receptor, used as chemoattractant (protein, UniProt P07141 33-552, looked up) Macrophage colony-stimulating …: KEVSEHCSHMIGNGHLKVLQQLIDSQMETSCQIAFEFVDQEQLDDPVCYLKKAFFLVQDIIDETMRFKDNTPNANATERLQELSNNLNSCFTKDYEEQNKACVRTFHETPLQLLEKIKNFFNETKNLLEKDWNIFTKNCNNSFAKCSSRDVVTKPDCNCLYPKATPSSDPASASPHQPPAPSMAPLAGLAWDDSQRTEGSSLLPSELPLRIEDPGSAKQRPPRSTCQTLESTEQPNHGDRLTEDSQPHPSAGGPVPGVEDILESSLGTNWVLEEASGEASEGFLTQEAKFSPSTPVGGSIQAETDRPRALSASPFPKSTEDQKPVDITDRPLTEVNPMRPIGQTQNNTPEKTDGTSTLREDHQEPGSPHIATPNPQRVSNSATPVAQLLLPKSHSWGIVLPLGELEGKRSTRDRRSPAELEGGSASEGAARPVARFNSIPLTDTGHVEQHEGSSDPQIPESVFHLLVPGIILVLLTVGGLLFYKWKWRSHRDPQTLDSSVGRPEDSSLTQDEDRQVELPV | – | – | migrated towards | incapable of responding | low response |
